Paper PMC8066102, “Metabolic Profiles of New Unsymmetrical Bisacridine Antitumor Agents in Electrochemical and Enzymatic Noncellular Systems and in Tumor Cells” (Pharmaceuticals, 2021)

Experiments:
HCT-116 cells = experiment: Drug metabolism in HCT-116 colon tumor cells; type: cell-based, human; settings: HCT-116 (low UGT expression), 50 μM, medium and cell extract, up to 24 h
Description: To analyze the transformation products of UAs in colon tumor cell lines, HCT-116 or HT-29 cells were plated in 60 mm Petri dishes; after reaching 80% of confluence, cells were treated with 5/25/50 μM of C-2028, C-2045 or C-2053 (prepared as 10 or 2 mM stock solutions in water) for specified time. Half of medium was added to acetonitrile (1:1, v/v), centrifuged (12 min, 13,400 rpm, 4 °C) and the supernatant was analyzed by HPLC (post-culture medium). Cells remaining on the Petri dishes were collected by gentle scraping, sedimented, washed with ice-cold PBS, suspended in ice-cold chloroform and lysed by sonication for 15 min. After 1 h on ice, insoluble material was removed by centrifugation at 13,000 rpm for 20 min at 4 °C. The sediment was discarded and supernatant (chloroform) were evaporated under pressure. Then, sample was suspended in ice-cold 60% methanol and directly analyzed by HPLC (cell extract).

UGT1A1 = biological target: T1, UGT1A1 (Homo sapiens, UniProt P22309); experiment: Modulation of UGT1A1 activity (SN-38 glucuronidation); type: in vitro ADME; set-up: purchased Corning, NY, USA (through DIAG-MED, Poland); host or cells: baculovirus-insect cells (Supersomes); settings: SN-38 substrate
T1 sequence (P22309 26-533): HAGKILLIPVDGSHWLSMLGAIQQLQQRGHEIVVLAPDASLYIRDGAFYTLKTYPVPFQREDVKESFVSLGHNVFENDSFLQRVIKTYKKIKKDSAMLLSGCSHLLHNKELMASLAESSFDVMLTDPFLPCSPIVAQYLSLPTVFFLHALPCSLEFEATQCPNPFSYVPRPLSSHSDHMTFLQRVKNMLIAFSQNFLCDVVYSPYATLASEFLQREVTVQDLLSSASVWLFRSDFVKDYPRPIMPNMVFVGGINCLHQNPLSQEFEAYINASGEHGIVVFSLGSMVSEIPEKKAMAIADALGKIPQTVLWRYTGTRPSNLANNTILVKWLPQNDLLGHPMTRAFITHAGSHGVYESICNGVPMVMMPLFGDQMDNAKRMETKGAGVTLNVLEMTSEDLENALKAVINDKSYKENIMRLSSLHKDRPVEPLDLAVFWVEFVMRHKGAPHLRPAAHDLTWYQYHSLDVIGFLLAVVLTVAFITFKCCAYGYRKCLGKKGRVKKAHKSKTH
Description: (§1) Isoenzyme activity was studied by the rate measurement of β-hydroxylation of testosterone (specific substrate for P4503A4) and of glucuronidation of specific substrates, namely, SN-38 (UGT1A1), EPI (UGT2B7),) and TFK (UGT2B15). All substrate and drug solutions were prepared as 10 mM stock solutions in DMSO and were diluted in […] (pH 7.4). The mixture containing isoenzymes P4503A4/UGT (0.5 mg/mL), probe substrate (0.1 mM), cofactor 2 mM NADPH/5 mM UDPGA and the increasing concentrations of tested UA (0, 0.01, 0.02 and 0.05 mM) was incubated in the reaction buffer containing (i) for P4503A4 0.1 M HEPES, 88 mM MgCl2 and (ii) for UGT 0.1 M HEPES, 88 mM MgCl2, 25 μg/mL alamethicin at 37 °C for 30 min and were terminated by adding 8.75 µL of 0.1 M HCl. The samples were placed in ice for 10 min and centrifuged (10 min, 13,400 rpm). Supernatant fractions were analyzed by HPLC. For more accurate investigation of P4503A4 inhibition by C-2045 and C-2053 the β-hydroxylation rate was measured at various concentrations of testosterone: 0.02, 0.05, 0.1 and 0.2 mM. The inhibitor (UA) concentrations were 0, 0.001, 0.005 and 0.01 mM, whereas the incubation time 30 min and concentration of P4503A4 (0.5 mg/mL).

UGT2B15 = biological target: T2, UGT2B15 (Homo sapiens, UniProt P54855); experiment: Modulation of UGT2B15 activity (TFK glucuronidation); type: in vitro ADME; settings: UGT2B15 isoenzyme preparation, pH 7.4, probe TFK, TFK substrate
T2 construct: purchased Corning, NY, USA (through DIAG-MED, Poland); host or cells: baculovirus-insect cells (Supersomes)
T2 sequence (P54855 24-530): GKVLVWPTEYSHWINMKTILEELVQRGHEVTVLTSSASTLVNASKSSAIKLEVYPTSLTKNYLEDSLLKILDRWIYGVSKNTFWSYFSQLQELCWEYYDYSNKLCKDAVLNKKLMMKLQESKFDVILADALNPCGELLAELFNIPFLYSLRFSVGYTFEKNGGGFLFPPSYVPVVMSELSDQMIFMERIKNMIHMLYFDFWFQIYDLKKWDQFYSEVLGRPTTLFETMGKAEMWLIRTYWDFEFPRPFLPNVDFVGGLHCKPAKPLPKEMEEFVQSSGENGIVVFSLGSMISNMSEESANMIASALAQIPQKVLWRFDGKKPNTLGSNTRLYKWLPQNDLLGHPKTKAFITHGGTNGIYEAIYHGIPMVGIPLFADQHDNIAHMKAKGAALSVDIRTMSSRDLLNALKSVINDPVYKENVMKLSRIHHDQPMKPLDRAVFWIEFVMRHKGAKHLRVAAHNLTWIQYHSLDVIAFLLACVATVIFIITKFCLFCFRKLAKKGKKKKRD
Description: as §1

SMILES	metabolite formation in cells (HCT-116 cells)	activity decrease of UGT1A1 (UGT1A1; low concentrations of compound)	inhibition at 30 min (UGT1A1; human, UGT1A1 isoenzyme preparation, pH 7.4, probe SN-38, higher concentrations of compound, read-out: inhibition rate of UGT1A1)	inhibition at 30 min, 0.05 mM (UGT2B15; highest concentration)	inhibition at 30 min (UGT2B15; lowest concentrations)
Cc1ccc([N+](=O)[O-])c2c(NCCCN(C)CCCNc3ccc4ncn5c6ccc(O)cc6c(=O)c3c45)c3ccccc3nc12 [C-2045]	No metabolite products were observed	–	–	–	–
CN(CCCNc1c2ccccc2nc2cccc([N+](=O)[O-])c12)CCCNc1ccc2ncn3c4ccccc4c(=O)c1c23 [C-2028]	–	77%	65 to 70%	80%	~30%
